In PubChem BioAssay (NCI):
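GI50: concentration for 50% inhibition of growth. TGI: total growth inhibition.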

Columns and labels:
Test in all cases: NCI tumour cell line growth inhibition, 384-well format
SF-268 CNS = tested on: SF-268 CNS
NCI-H23 lung = tested on: NCI-H23 lung
A498 renal = tested on: A498 renal
A549 NSCLC = tested on: A549 NSCLC
UO-31 renal = tested on: UO-31 renal
HCT-116 colon = tested on: HCT-116 colon
SK-OV-3 ovarian = tested on: SK-OV-3 ovarian
BT-549 breast = tested on: BT-549 breast
TK-10 renal = tested on: TK-10 renal
MDA-MB-231 breast = tested on: MDA-MB-231 breast
UACC-62 melanoma = tested on: UACC-62 melanoma
NCI/ADR-RES ovarian = tested on: NCI/ADR-RES ovarian
SR leukemia = tested on: SR leukemia

In the case of `C[C@@H]1CN(CC(=O)N2CC(C)(C)c3nc(CO)c(Cc4ccc(F)cc4)cc32)[C@@H](CN2CCOC[C@H]2C)CN1`, the GI50 (SF-268 CNS) is reported as 38.6 µM, the TGI (SF-268 CNS) is reported as over 74.7 µM and the GI50 (NCI-H23 lung) is reported as 24.8 µM. The TGI (NCI-H23 lung) was 99.2 µM, the GI50 (A498 renal) was 21.5 µM and the TGI (A498 renal) was 53.2 µM. For the same compound, the GI50 (A549 NSCLC) was over 69.2 µM, the TGI (A549 NSCLC) was over 100 µM and the GI50 (UO-31 renal) was 39.6 µM. For the same compound, the TGI (UO-31 renal) was over 100 µM, the GI50 (HCT-116 colon) was 35.6 µM and the TGI (HCT-116 colon) was over 91.2 µM. It also gave a GI50 (SK-OV-3 ovarian) of under 0.0207 µM, a TGI (SK-OV-3 ovarian) of 4.32 µM and a GI50 (BT-549 breast) of 0.695 µM. The TGI (BT-549 breast) was 27.8 µM, the GI50 (TK-10 renal) was 27.9 µM and the TGI (TK-10 renal) was 52.9 µM. It also gave a GI50 (MDA-MB-231 breast) of 0.103 µM, a TGI (MDA-MB-231 breast) of 2.39 µM and a GI50 (UACC-62 melanoma) of 27.9 µM. The TGI (UACC-62 melanoma) was over 69 µM, the GI50 (NCI/ADR-RES ovarian) was over 70.9 µM and the TGI (NCI/ADR-RES ovarian) was over 100 µM. For the same compound, the GI50 (SR leukemia) was 15.1 µM and the TGI (SR leukemia) was 28.5 µM.
